Results from PubChem BioAssay AID330 (DTP/NCI, 2004).
Several values for one entry are separate records, joined by “and”; a condition that tells them apart may be missing. Equal entries are not always repeated. Toxic doses and inconclusive results are not listed. Rule for the calls: active = survival T/C of 150% or more; inactive = T/C below 125% in these data.

Test system: P388 leukemia ip, CD2F1 mice, survival T/C
Assay: NCI In Vivo Anticancer Drug Screen. Data for tumor model P388 Leukemia (intraperitoneal) in CD2F1 (CDF1) mice
Conditions: endpoint: median survival time, higher = longer survival
How it was run: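 Mice carrying the transplanted tumor received test compound or vehicle. Survival was recorded in each group, and the value is the treated-group measurement divided by that of the vehicle-treated control group.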

[1] = dose: 6.25 mg/kg/injection, schedule: Q01DX009 (ip), vehicle: water
[2] = dose: 12.5 mg/kg/injection, schedule: Q01DX009 (ip), vehicle: water
[3] = dose: 25.0 mg/kg/injection, schedule: Q01DX009 (ip), vehicle: water
[4] = dose: 50.0 mg/kg/injection, schedule: Q01DX009 (ip), vehicle: water
[5] = dose: 50.0 mg/kg/injection, schedule: Q01DX005 (ip), vehicle: Klucel (hydroxypropylcellulose) (HPC)
[6] = dose: 100.0 mg/kg/injection, schedule: Q01DX005 (ip), vehicle: Klucel (hydroxypropylcellulose) (HPC)
[7] = dose: 200.0 mg/kg/injection, schedule: Q01DX005 (ip), vehicle: Klucel (hydroxypropylcellulose) (HPC)
[8] = dose: 100.0 mg/kg/injection, schedule: Q04DX003 (ip), vehicle: saline with Tween-80
[9] = dose: 200.0 mg/kg/injection, schedule: Q04DX003 (ip), vehicle: saline with Tween-80
[10] = dose: 60.0 mg/kg/injection, schedule: Q01DX005 (ip), vehicle: Klucel (hydroxypropylcellulose) (HPC)
[11] = dose: 120.0 mg/kg/injection, schedule: Q01DX005 (ip), vehicle: Klucel (hydroxypropylcellulose) (HPC)
[12] = dose: 240.0 mg/kg/injection, schedule: Q01DX005 (ip), vehicle: Klucel (hydroxypropylcellulose) (HPC)
[13] = dose: 100.0 mg/kg/injection, schedule: Q04DX003 (ip), vehicle: Klucel (hydroxypropylcellulose) (HPC)
[14] = dose: 200.0 mg/kg/injection, schedule: Q04DX003 (ip), vehicle: Klucel (hydroxypropylcellulose) (HPC)
[15] = dose: 60.0 mg/kg/injection, schedule: Q01DX005 (ip), vehicle: saline with Tween-80

Measured: T/C

OCC1OC(n2cc(I)c3c2ncn2nnnc32)C(O)C1O (stereo not drawn)
inactive: dose: 3.13 mg/kg/injection, schedule: Q01DX009 (ip), vehicle: water 99 % of control | [1] 100 % of control | [2] 97 % of control | [3] 97 % of control | [4] 89 % of control

COc1cc(-c2nn(CN3CCOCC3)c(=S)o2)cc(OC)c1OC
inactive: [5] 96 % of control | [6] 97 % of control | [7] 99 % of control

CCOC(=S)/N=C1/SCS(=O)(=O)N1c1ccccc1
inactive: dose: 50.0 mg/kg/injection, schedule: Q04DX003 (ip), vehicle: saline with Tween-80 99 % of control | [8] 95 % of control | [9] 98 % of control

O=c1c2ccccc2ncn1-c1ccc(O)c(CN(CCCl)CCCl)c1
inactive: dose: 100.0 mg/kg/injection, schedule: Q01DX001 (ip), vehicle: saline with Tween-80 101 % of control | dose: 200.0 mg/kg/injection, schedule: Q01DX001 (ip), vehicle: saline with Tween-80 97 % of control | dose: 400.0 mg/kg/injection, schedule: Q01DX001 (ip), vehicle: saline with Tween-80 93 % of control

Nc1ncnc2c1ccn2C1OC(CO)C(O)C1O (stereo not drawn)
inactive: dose: 0.44 mg/kg/injection, schedule: Q01DX001 (ip), vehicle: saline 120 % of control | dose: 0.5 mg/kg/injection, schedule: Q01DX009 (ip), vehicle: water 113 % of control | dose: 0.88 mg/kg/injection, schedule: Q01DX001 (ip), vehicle: saline 110 % of control | dose: 8.0 mg/kg/injection, schedule: Q01DX010 (sc), vehicle: saline 105 % of control | dose: 16.0 mg/kg/injection, schedule: Q01DX010 (sc), vehicle: saline 110 % of control | dose: 55.0 micrograms/kg/injection, schedule: Q07DX Z (ip), vehicle: saline 90 % of control | dose: 110.0 micrograms/kg/injection, schedule: Q07DX Z (ip), vehicle: saline 105 % of control | dose: 220.0 micrograms/kg/injection, schedule: Q07DX Z (ip), vehicle: saline 105 % of control | dose: 440.0 micrograms/kg/injection, schedule: Q07DX Z (ip), vehicle: saline 105 % of control

CCOC(=O)c1ccc(NC(=O)Nc2cc(OC)ccc2OC)cc1
inactive: [10] 98 % of control | [11] 99 % of control | [12] 101 % of control

COC(=O)C1CC(c2ccccc2)N(c2ccccc2)O1 (stereo not drawn) (tested in a mixture with another compound)
inactive: [8] 95 % of control | [9] 96 % of control | dose: 400.0 mg/kg/injection, schedule: Q04DX003 (ip), vehicle: saline with Tween-80 94 % of control

O=c1c2ccccc2nnn1O
inactive: [13] 108 % of control | [14] 108 % of control

CCOC(=O)CCCCCN(/C=C(\C)CN1c2c(nc(N)[nH]c2=O)NCC1CNc1ccc(C(=O)NC(CCC(=O)O)C(=O)O)cc1)C(C)=O (stereo not drawn)
inactive: dose: 50.0 mg/kg/injection, schedule: Q01DX001 (ip), vehicle: sodium bicarbonate 99 % of control | dose: 100.0 mg/kg/injection, schedule: Q01DX001 (ip), vehicle: sodium bicarbonate 100 % of control | dose: 200.0 mg/kg/injection, schedule: Q01DX001 (ip), vehicle: sodium bicarbonate 100 % of control

Cc1nc(C(=O)NO)c2ccccc2n1
inactive: dose: 12.5 mg/kg/injection, schedule: Q01DX009 (ip), vehicle: saline with Tween-80 102 % of control | dose: 25.0 mg/kg/injection, schedule: Q01DX009 (ip), vehicle: saline with Tween-80 102 % of control | dose: 50.0 mg/kg/injection, schedule: Q01DX009 (ip), vehicle: saline with Tween-80 98 % of control and 97 % of control | dose: 200.0 mg/kg/injection, schedule: Q01DX009 (ip), vehicle: saline with Tween-80 103 % of control

C/C1=C\CCC(C)C2CCC(C)(O2)C(O)C(O)c2c(C)coc2C1 (stereo not drawn)
inactive: dose: 4.0 mg/kg/injection, schedule: Q01DX009 (ip), vehicle: Klucel (hydroxypropylcellulose) (HPC) 100 % of control | dose: 8.0 mg/kg/injection, schedule: Q01DX009 (ip), vehicle: Klucel (hydroxypropylcellulose) (HPC) 105 % of control | dose: 16.0 mg/kg/injection, schedule: Q01DX009 (ip), vehicle: Klucel (hydroxypropylcellulose) (HPC) 100 % of control | dose: 32.0 mg/kg/injection, schedule: Q01DX009 (ip), vehicle: Klucel (hydroxypropylcellulose) (HPC) 94 % of control

CCOCCC(=O)NCC(=O)NC1C(C)OC(Nc2ncnc3nc[nH]c23)C(O)C1O (stereo not drawn)
inactive: dose: 3.12 mg/kg/injection, schedule: Q01DX009 (ip), vehicle: water 94 % of control | [1] 100 % of control | [2] 96 % of control | [3] 116 % of control | [4] 100 % of control

CN(/C=C/C=C/C=N/O)c1ccccc1
inactive: dose: 50.0 mg/kg/injection, schedule: Q01DX001 (ip), vehicle: Klucel (hydroxypropylcellulose) (HPC) 104 % of control | dose: 100.0 mg/kg/injection, schedule: Q01DX001 (ip), vehicle: Klucel (hydroxypropylcellulose) (HPC) 100 % of control | dose: 200.0 mg/kg/injection, schedule: Q01DX001 (ip), vehicle: Klucel (hydroxypropylcellulose) (HPC) 99 % of control

O=c1c2c(oc3cc(OCC4CO4)ccc13)CCC2 (stereo not drawn)
inactive: [5] 93 % of control | [6] 88 % of control | [7] 95 % of control

O=C1CSc2ccccc2-n2cccc21
inactive: [10] 89 % of control | [11] 109 % of control | [12] 101 % of control

CCC#CC(=O)OCC
inactive: [15] 113 % of control | dose: 120.0 mg/kg/injection, schedule: Q01DX005 (ip), vehicle: saline with Tween-80 102 % of control | dose: 240.0 mg/kg/injection, schedule: Q01DX005 (ip), vehicle: saline with Tween-80 121 % of control

Cc1ccc(N(CN2C(=O)CCC2=O)CS(=O)(=O)c2ccc(C)cc2)cc1
inactive: [10] 97 % of control | [11] 98 % of control and 93 % of control | [12] 93 % of control and 96 % of control

Nc1ccc(S(=O)(=O)CCCl)cc1
inactive: dose: 12.5 mg/kg/injection, schedule: Q04DX003 (ip), vehicle: Klucel (hydroxypropylcellulose) (HPC) 96 % of control | dose: 25.0 mg/kg/injection, schedule: Q04DX003 (ip), vehicle: Klucel (hydroxypropylcellulose) (HPC) 102 % of control | dose: 50.0 mg/kg/injection, schedule: Q04DX003 (ip), vehicle: Klucel (hydroxypropylcellulose) (HPC) 105 % of control | [13] 107 % of control | [14] 112 % of control

O=C(Nc1ccccc1Cl)Oc1ccc(C(=O)c2ccccc2)cc1
inactive: dose: 15.0 mg/kg/injection, schedule: Q01DX005 (ip), vehicle: saline with Tween-80 100 % of control | dose: 30.0 mg/kg/injection, schedule: Q01DX005 (ip), vehicle: saline with Tween-80 97 % of control | [15] 90 % of control

CNCCc1c(C2[C@@H]3[C@H](C=C(C)CC3(C)C)[C@]34Nc5ccccc5[C@]23CCN4C)[nH]c2ccccc12 (stereo partly drawn)
inactive: dose: 4.0 mg/kg/injection, schedule: Q01DX009 (ip), vehicle: saline 100 % of control | dose: 8.0 mg/kg/injection, schedule: Q01DX009 (ip), vehicle: saline 94 % of control | dose: 16.0 mg/kg/injection, schedule: Q01DX009 (ip), vehicle: saline 103 % of control | dose: 32.0 mg/kg/injection, schedule: Q01DX009 (ip), vehicle: saline 100 % of control

O=C(O)c1ccc(Cc2ccc(C(=O)O)cc2)cc1 (tested in a mixture with another compound)
inactive: dose: 50.0 mg/kg/injection, schedule: Q01DX009 (ip), vehicle: saline 95 % of control | dose: 100.0 mg/kg/injection, schedule: Q01DX009 (ip), vehicle: saline 99 % of control | dose: 200.0 mg/kg/injection, schedule: Q01DX009 (ip), vehicle: saline 104 % of control

C=CC(=NC(C)(C)C)Nc1ccccc1Cl
inactive: dose: 3.12 mg/kg/injection, schedule: Q01DX009 (ip), vehicle: Klucel (hydroxypropylcellulose) (HPC) 104 % of control | dose: 6.25 mg/kg/injection, schedule: Q01DX009 (ip), vehicle: Klucel (hydroxypropylcellulose) (HPC) 103 % of control | dose: 6.25 mg/kg/injection, schedule: Q01DX009 (ip), vehicle: saline 116 % of control | dose: 12.5 mg/kg/injection, schedule: Q01DX009 (ip), vehicle: Klucel (hydroxypropylcellulose) (HPC) 102 % of control | dose: 12.5 mg/kg/injection, schedule: Q01DX009 (ip), vehicle: saline 118 % of control and 93 % of control | dose: 25.0 mg/kg/injection, schedule: Q01DX009 (ip), vehicle: saline 111 % of control
